Data reported in PubChem BioAssay AID248 (DTP/NCI, 2004).
Values joined by “and” are separate entries in the source; they are usually repeats but may differ in a detail not shown here. Equal values may be shown once. Toxic doses and inconclusive results are not listed. Rule as the data show it: active = T/C of 150% or more; inactive = T/C below 125%.

Test system: L1210 leukemia ip in BDF1 mice, survival T/C
Experiment: NCI In Vivo Anticancer Drug Screen. Data for tumor model L1210 Leukemia (intraperitoneal) in B6D2F1 (BDF1) mice
Details: endpoint: mean survival time, higher = longer survival
In short: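 Tumor cells were implanted, animals were treated, and survival was followed. The result divides the treated measurement by the vehicle-control measurement.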

[1] = dose: 50.0 mg/kg/injection, schedule: Q01DX001 (ip), vehicle: saline
[2] = dose: 100.0 mg/kg/injection, schedule: Q01DX001 (ip), vehicle: saline
[3] = dose: 200.0 mg/kg/injection, schedule: Q01DX001 (ip), vehicle: saline
[4] = dose: 400.0 mg/kg/injection, schedule: Q01DX001 (ip), vehicle: saline
[5] = dose: 75.0 mg/kg/injection, schedule: Q01DX001 (ip), vehicle: Klucel (hydroxypropylcellulose) (HPC)
[6] = dose: 150.0 mg/kg/injection, schedule: Q01DX001 (ip), vehicle: Klucel (hydroxypropylcellulose) (HPC)
[7] = dose: 50.0 mg/kg/injection, schedule: Q01DX009 (ip), vehicle: saline with Tween-80
[8] = dose: 100.0 mg/kg/injection, schedule: Q01DX009 (ip), vehicle: saline with Tween-80
[9] = dose: 200.0 mg/kg/injection, schedule: Q01DX009 (ip), vehicle: saline with Tween-80
[10] = dose: 100.0 mg/kg/injection, schedule: Q01DX009 (ip), vehicle: saline
[11] = dose: 200.0 mg/kg/injection, schedule: Q01DX009 (ip), vehicle: saline
[12] = dose: 100.0 mg/kg/injection, schedule: Q04DX002 (ip), vehicle: saline with Tween-80
[13] = dose: 100.0 mg/kg/injection, schedule: Q04DX003 (ip), vehicle: saline with Tween-80
[14] = dose: 200.0 mg/kg/injection, schedule: Q04DX002 (ip), vehicle: saline with Tween-80
[15] = dose: 200.0 mg/kg/injection, schedule: Q04DX003 (ip), vehicle: saline with Tween-80
[16] = dose: 400.0 mg/kg/injection, schedule: Q04DX002 (ip), vehicle: saline with Tween-80
[17] = dose: 400.0 mg/kg/injection, schedule: Q04DX003 (ip), vehicle: saline with Tween-80
[18] = dose: 100.0 mg/kg/injection, schedule: Q04DX003 (ip), vehicle: Klucel (hydroxypropylcellulose) (HPC)
[19] = dose: 200.0 mg/kg/injection, schedule: Q04DX003 (ip), vehicle: Klucel (hydroxypropylcellulose) (HPC)
[20] = dose: 400.0 mg/kg/injection, schedule: Q04DX003 (ip), vehicle: Klucel (hydroxypropylcellulose) (HPC)
[21] = dose: 100.0 mg/kg/injection, schedule: Q01DX001 (ip), vehicle: carboxymethylcellulose (CMC)
[22] = dose: 400.0 mg/kg/injection, schedule: Q01DX001 (ip), vehicle: carboxymethylcellulose (CMC)
[23] = dose: 100.0 mg/kg/injection, schedule: Q04DX003 (ip), vehicle: saline
[24] = dose: 200.0 mg/kg/injection, schedule: Q04DX003 (ip), vehicle: saline
[25] = dose: 400.0 mg/kg/injection, schedule: Q04DX003 (ip), vehicle: saline

Measured: T/C

COc1ccc2c(c1OC)C(=O)O[C@@H]2[C@H]1c2c(cc3c(c2OC)OCO3)CCN1C
inactive: dose: 31.3 mg/kg/injection, schedule: Q01DX009 (ip), vehicle: saline 95 % of control and 100 % of control (2×) | [1] 96 % of control | dose: 62.5 mg/kg/injection, schedule: Q01DX009 (ip), vehicle: saline 94 % of control and 100 % of control (2×) | [2] 102 % of control | dose: 125.0 mg/kg/injection, schedule: Q01DX009 (ip), vehicle: saline 96 % of control and 97 % of control and 91 % of control | [3] 107 % of control | dose: 250.0 mg/kg/injection, schedule: Q01DX009 (ip), vehicle: saline 102 % of control and 104 % of control and 91 % of control | [4] 111 % of control

COC(=O)c1ccccc1C(=O)c1ccccc1
inactive: dose: 100.0 mg/kg/injection, schedule: Q04DX003 (ip), vehicle: carboxymethylcellulose (CMC) 101 % of control | dose: 200.0 mg/kg/injection, schedule: Q04DX003 (ip), vehicle: carboxymethylcellulose (CMC) 102 % of control | dose: 400.0 mg/kg/injection, schedule: Q04DX003 (ip), vehicle: carboxymethylcellulose (CMC) 96 % of control

O=c1c(N=Nc2ccc(Br)cc2)c(O)n(-c2ccc(Cl)cc2)c(=S)n1-c1ccccc1
inactive: dose: 37.5 mg/kg/injection, schedule: Q01DX001 (ip), vehicle: Klucel (hydroxypropylcellulose) (HPC) 107 % of control | [5] 108 % of control | [6] 104 % of control

CCC/C(=N/NC(=O)C1CCCO1)c1ccccc1 (stereo not given)
inactive: dose: 25.0 mg/kg/injection, schedule: Q01DX009 (ip), vehicle: Klucel (hydroxypropylcellulose) (HPC) 104 % of control | dose: 50.0 mg/kg/injection, schedule: Q01DX009 (ip), vehicle: Klucel (hydroxypropylcellulose) (HPC) 102 % of control | dose: 100.0 mg/kg/injection, schedule: Q01DX009 (ip), vehicle: Klucel (hydroxypropylcellulose) (HPC) 104 % of control and 88 % of control

C=CCNc1ccc(OC)cc1
inactive: [7] 88 % of control | [8] 96 % of control | [9] 98 % of control

c1ccc(-c2cc(-c3ccccc3)c(-c3ccccc3)c(-c3ccccc3)c2)cc1
inactive: [1] 100 % of control | [2] 100 % of control | [3] 100 % of control | [4] 100 % of control

CN(C)N=Nc1cn(C2OC(CO)C(O)C2O)c(=O)[nH]c1=O (stereo not given)
inactive: [10] 111 % of control | [11] 120 % of control

COc1cc([N+](=O)[O-])ccc1NC(=O)N(C1CCCCC1)C1CCCCC1
inactive: [7] 100 % of control and 106 % of control | dose: 50.0 mg/kg/injection, schedule: Q04DX002 (ip), vehicle: saline with Tween-80 90 % of control | dose: 100.0 mg/kg/injection, schedule: Q01DX001 (ip), vehicle: saline with Tween-80 95 % of control | [8] 96 % of control and 108 % of control | [12] 93 % of control and 99 % of control and 105 % of control | [13] 108 % of control | dose: 200.0 mg/kg/injection, schedule: Q01DX001 (ip), vehicle: saline with Tween-80 91 % of control | [9] 100 % of control and 104 % of control | [14] 89 % of control | [15] 106 % of control | dose: 400.0 mg/kg/injection, schedule: Q01DX001 (ip), vehicle: saline with Tween-80 91 % of control | dose: 400.0 mg/kg/injection, schedule: Q01DX009 (ip), vehicle: saline with Tween-80 108 % of control and 111 % of control | [16] 93 % of control and 97 % of control and 99 % of control | [17] 104 % of control

Cc1ccccc1/[N+]([O-])=C/c1ccccc1
inactive: dose: 100.0 mg/kg/injection, schedule: Q01DX001 (ip), vehicle: Klucel (hydroxypropylcellulose) (HPC) 104 % of control | [18] 103 % of control | dose: 200.0 mg/kg/injection, schedule: Q01DX001 (ip), vehicle: Klucel (hydroxypropylcellulose) (HPC) 104 % of control | dose: 200.0 mg/kg/injection, schedule: Q01DX009 (ip), vehicle: Klucel (hydroxypropylcellulose) (HPC) 93 % of control | [19] 102 % of control | dose: 400.0 mg/kg/injection, schedule: Q01DX001 (ip), vehicle: Klucel (hydroxypropylcellulose) (HPC) 101 % of control | dose: 400.0 mg/kg/injection, schedule: Q01DX009 (ip), vehicle: Klucel (hydroxypropylcellulose) (HPC) 104 % of control | [20] 102 % of control

CCC/C=C(\C)C(C)(C#N)C(=O)OCC (stereo not given)
inactive: dose: 75.0 mg/kg/injection, schedule: Q01DX001 (ip), vehicle: other 112 % of control | dose: 150.0 mg/kg/injection, schedule: Q01DX001 (ip), vehicle: other 98 % of control | dose: 300.0 mg/kg/injection, schedule: Q01DX001 (ip), vehicle: other 110 % of control

CC12CCCCC1C(C(=O)O)CC2 (stereo not given)
inactive: [12] 105 % of control | [14] 105 % of control | [16] 92 % of control

O=C(/C(=N/N=C\c1ccc([N+](=O)[O-])cc1)c1ccccc1)c1ccccc1
inactive: [13] 96 % of control | [15] 96 % of control | [17] 94 % of control

CC(=O)OC1(N=NC(C)(C)C)C(C)(C)C(=O)C1(C)C
inactive: [18] 91 % of control | [19] 86 % of control | [20] 91 % of control

CC(C)CNCc1ccc([N+](=O)[O-])cc1
inactive: dose: 75.0 mg/kg/injection, schedule: Q01DX001 (ip), vehicle: carboxymethylcellulose (CMC) 97 % of control | dose: 150.0 mg/kg/injection, schedule: Q01DX001 (ip), vehicle: carboxymethylcellulose (CMC) 95 % of control

Cc1ccc(C(=O)c2ccccc2)c(C)c1
inactive: [21] 86 % of control | [22] 92 % of control

Nc1nc(N)nc(-c2ccncc2)n1
inactive: [7] 119 % of control

O=S(=O)(Nc1cc(Cl)c(NS(=O)(=O)c2ccccc2)c2ccccc12)c1ccccc1
inactive: [5] 92 % of control | dose: 75.0 mg/kg/injection, schedule: Q01DX009 (ip), vehicle: Klucel (hydroxypropylcellulose) (HPC) 92 % of control | [6] 101 % of control | dose: 150.0 mg/kg/injection, schedule: Q01DX009 (ip), vehicle: Klucel (hydroxypropylcellulose) (HPC) 94 % of control | dose: 300.0 mg/kg/injection, schedule: Q01DX001 (ip), vehicle: Klucel (hydroxypropylcellulose) (HPC) 95 % of control

CC(=O)Nc1ccn(C2OC(COC(C)=O)C(OC3OC(COC(C)=O)C(OC(C)=O)C(OC(C)=O)C3OC(C)=O)C(OC(C)=O)C2OC(C)=O)c(=O)n1 (stereo not given)
inactive: dose: 22.5 mg/kg/injection, schedule: Q01DX001 (ip), vehicle: carboxymethylcellulose (CMC) 103 % of control | dose: 45.0 mg/kg/injection, schedule: Q01DX001 (ip), vehicle: carboxymethylcellulose (CMC) 100 % of control | dose: 90.0 mg/kg/injection, schedule: Q01DX001 (ip), vehicle: carboxymethylcellulose (CMC) 100 % of control | dose: 180.0 mg/kg/injection, schedule: Q01DX001 (ip), vehicle: carboxymethylcellulose (CMC) 100 % of control

CCCN(CCC)CC(O)c1ccc2cccc3c2c1CC3 (stereo not given)
inactive: dose: 75.0 mg/kg/injection, schedule: Q01DX001 (ip), vehicle: saline 104 % of control | dose: 150.0 mg/kg/injection, schedule: Q01DX001 (ip), vehicle: saline 98 % of control | dose: 300.0 mg/kg/injection, schedule: Q01DX001 (ip), vehicle: saline 95 % of control

CC(=O)CC(=O)NCc1cccnc1
inactive: dose: 50.0 mg/kg/injection, schedule: Q04DX003 (ip), vehicle: saline 106 % of control | [10] 93 % of control | [23] 97 % of control | [11] 104 % of control | [24] 94 % of control and 100 % of control | dose: 400.0 mg/kg/injection, schedule: Q01DX009 (ip), vehicle: saline 98 % of control | [25] 96 % of control

COc1ccc(C[Si](C)C)cc1
inactive: [23] 93 % of control | [24] 98 % of control | [25] 94 % of control

CC1Cc2c(n[nH]c2CC2CC(=O)NC(=O)C2)C(C)C1 (stereo not given)
inactive: [21] 100 % of control | dose: 200.0 mg/kg/injection, schedule: Q01DX001 (ip), vehicle: carboxymethylcellulose (CMC) 97 % of control | [22] 101 % of control
